For 1 compound, cell death results are on record in patent publication US20080003226A1, “Method to Reduce Hepatoxicity of Fas-Mediated Apoptosis-Inducing Agents” (APOXIS SA, priority 2004, published 2008).

The subject of this test is mesothelioma and ovarian cancer cell lines. In words: Cytotoxicity of MegaFasL as single agent and in combination with cisplatin in vitro. In kind it is cell-based. The note with it: compound alone. The method, then: Use of the Fas-mediated apoptosis inducing agents defined above and more particularly hexamers of the soluble fraction of FasL as defined above as an adjuvant with existing chemotherapies is another embodiment of the present invention. […] Actually, the antitumor effectiveness of MegaFasL as single agent and in combination with cisplatin was evaluated first on mesothelioma and ovarian cancer cell lines in vitro.

With `N.N.[Cl][Pt][Cl]` [cisplatin], the cell death entry is recorded as “only marginal cell death”.
